As usually defined, the IC50 is the point on the concentration scale where inhibition reaches its midpoint. For orientation: remaining activity means the activity still measured, relative to the control. High values mean a small loss of activity, low ones a large loss of activity. The term stoichiometry N denotes a count of units in the complex or per binding partner.

The source of these data is article PMC11532494 (Nature Communications, 2024).

In one data set the target is RwDmhA (1b) (Rhizorhabdus wittichii, UniProt A0A067XIQ6). Put plainly: biochemical. The settings on record: for IC50: 30 nM enzyme, 60 min, 37 °C.
The next data set addresses LpApaH (3) (Legionella pneumophila, UniProt A0A2S6EWV0). Kind of data set: biochemical.
Data set [1] deals with T1, BsAcuC (2c) (Bacillus subtilis, UniProt P39067).
T1 construct: made in house; host or cells: E. coli BL21 (DE3)
T1 sequence (P39067 1-387): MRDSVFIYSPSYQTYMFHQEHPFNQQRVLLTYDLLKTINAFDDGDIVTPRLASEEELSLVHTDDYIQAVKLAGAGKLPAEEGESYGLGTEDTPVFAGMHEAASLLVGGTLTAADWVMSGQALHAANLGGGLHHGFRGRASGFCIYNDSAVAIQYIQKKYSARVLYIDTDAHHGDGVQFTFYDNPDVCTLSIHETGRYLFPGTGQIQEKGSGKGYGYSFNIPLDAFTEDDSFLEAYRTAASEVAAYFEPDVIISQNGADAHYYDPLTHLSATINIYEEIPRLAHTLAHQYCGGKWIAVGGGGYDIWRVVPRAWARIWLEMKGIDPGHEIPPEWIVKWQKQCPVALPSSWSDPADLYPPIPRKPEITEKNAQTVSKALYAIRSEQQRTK
Kind of data set: Dose-response inhibition assay. In kind it is biochemical. The settings on record: dose-response inhibition assay. From the text: Data was transformed to relative enzyme activity (%) compared to control wells without inhibitor, and fitted to sigmoidal functions with variable slope (Eqs. 3, 4 parameters, h: Hill slope) to afford IC50 values. Assuming fast-on/fast-off competitive inhibition, the Cheng–Prusoff equation (Eq. 4) was employed to transform IC50 data into inhibitory constants (Ki), with KM values as determined previously.3 Res.activity=Res.activitybottom+Res.activitytop−Res.activitybottom/1+10^(logIC50−logI)h 4 Ki=IC50/1+[S]/KM

The next data set addresses KpHdaH (1b) (Klebsiella pneumoniae, UniProt A0A377Z5F6). Kind of data set: biochemical. The settings on record: for IC50: 15 nM enzyme, 60 min, 37 °C.
The target in data set [2] is T1, BsAcuC (2c). Put plainly: Inhibitor screening assay (10 µM or 1 µM). In kind it is biochemical. An excerpt:
Data was transformed to relative enzyme activity (%) compared to control wells without inhibitors.

A further data set concerns the target LcApaH (3) (Legionella cherrii, UniProt A0A0W0SGS1). Kind of data set: biochemical. To be noted: for IC50: 0.5 nM enzyme, 30 min, 37 °C.
In data set [3] the target is Δ20-37 KpHdaH (Klebsiella pneumoniae).
For data set [4], the target named is Pseudomonas sp. acetylpolyamine amidohydrolase ApaH (Pseudomonas sp.). Put plainly: SEC. On the technique in general: In gel filtration, larger molecules generally elute earlier.
The target in data set [5] is PrpH (propanil hydrolase) of Rhizorhabdus sp. (Rhizorhabdus sp.). Kind of data set: crystal structure.
Data set [6] concerns the target PsApaH_(1-342) (4) (Pseudomonas sp.). Put plainly: crystal structure.
The data set “crystal structure” deals with the molecule itself. Put plainly: crystal structure.
Data set [7] deals with T2, Legionella cherrii acetyl-polyamine aminohydrolase (Legionella cherrii).
T2 sequence: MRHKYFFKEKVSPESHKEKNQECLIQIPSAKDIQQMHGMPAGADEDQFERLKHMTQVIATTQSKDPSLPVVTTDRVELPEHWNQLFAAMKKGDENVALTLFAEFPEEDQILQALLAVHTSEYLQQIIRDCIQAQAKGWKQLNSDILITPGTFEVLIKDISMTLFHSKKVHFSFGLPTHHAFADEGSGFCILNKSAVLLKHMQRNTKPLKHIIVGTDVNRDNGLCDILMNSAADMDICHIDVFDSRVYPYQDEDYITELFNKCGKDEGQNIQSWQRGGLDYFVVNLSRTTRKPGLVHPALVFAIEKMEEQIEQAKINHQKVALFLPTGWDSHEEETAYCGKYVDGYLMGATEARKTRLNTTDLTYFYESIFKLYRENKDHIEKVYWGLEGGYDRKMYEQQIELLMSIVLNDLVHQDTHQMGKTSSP
Put plainly: enzyme kinetics with substrate inhibition (Fluor-de-Lys assay).

Data set [8] concerns the target T3, Legionella pneumophila acetyl-polyamine aminohydrolase (Legionella pneumophila).
T3 sequence: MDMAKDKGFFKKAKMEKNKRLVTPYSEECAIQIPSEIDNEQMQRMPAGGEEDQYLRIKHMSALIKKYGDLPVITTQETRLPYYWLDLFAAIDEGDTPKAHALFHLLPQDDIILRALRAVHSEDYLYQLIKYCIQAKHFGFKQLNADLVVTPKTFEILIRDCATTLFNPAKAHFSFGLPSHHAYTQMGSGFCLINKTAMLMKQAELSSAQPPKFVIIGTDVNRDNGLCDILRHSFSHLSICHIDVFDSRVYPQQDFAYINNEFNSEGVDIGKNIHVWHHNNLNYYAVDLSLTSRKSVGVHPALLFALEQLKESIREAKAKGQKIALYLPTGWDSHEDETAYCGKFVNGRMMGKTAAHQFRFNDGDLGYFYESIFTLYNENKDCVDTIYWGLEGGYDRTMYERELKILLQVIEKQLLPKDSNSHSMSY
Described as above.

The target in data set [9] is DmhA (dimethoate hydrolase) of Rhizorhabdus wittichii (Rhizorhabdus wittichii). Put plainly: enzyme kinetics with substrate in.
For data set [10], the target named is Pseudomonas sp. acetylpolyamine amidohydrolase ApaH (Pseudomonas sp.). Kind of data set: enzyme kinetics with substrate in.
The mark [11] stands for this setting: Log[IC50(M)], decadic log of IC50, 60 µM QPKKac.

Take `O=C(CCCCCCC(=O)Nc1ccccc1)NO` [SAHA, suberoylanilide hydroxamic acid]: the Ki on RwDmhA (1b) is 41.6 nM; on LpApaH (3) (Ki), 230 nM; on KpHdaH (1b) (Ki, calculated using the Cheng–Prusoff equation, 60 µM QPKKac), 22.4 nM; at LcApaH (3) (Ki, calculated using the Cheng–Prusoff equation, 40 µM LGKac), 307 nM. Besides, the concentration for half-maximal inhibition (IC50) on RwDmhA (1b) (IC50, 60 µM QPKKac) was 1.01e-07 M; against RwDmhA (1b) (setting [11]), 1e-07 M; against LpApaH (3) (IC50) it was 6.69e-07 M; against LpApaH (3) (Log[IC50(M)]), 6.61e-07 M; at KpHdaH (1b) (IC50, 60 µM QPKKac), 9.71e-08 M; at KpHdaH (1b) (setting [11]) it was 9.77e-08 M. The IC50 at LcApaH (3) (IC50, 40 µM LGKac) is 8.09e-07 M; against LcApaH (3) (Log[IC50(M)], decadic log of IC50, 40 µM LGKac) it was 8.13e-07 M. Further, the “inhibition of BsAcuC (2c), in words” value against BsAcuC (2c) [1] is “not detecting any inhibition”. Moreover, the remaining activity at 1 µM at BsAcuC (2c) [2] (1 µM inhibitor, mean of n = 2, 40 µM LGKac) was found to be 84.7%; on BsAcuC (2c) [2] (1 µM inhibitor, single measurements (two columns), 40 µM LGKac, 60 min, 37 °C) it was 83.2%; at BsAcuC (2c) [2] (BsAcuC (2c), inhibitor 1 µM, individual replicates), 83.2%; at BsAcuC (2c) [2] (BsAcuC (2c), inhibitor 1 µM, mean), 84.7%. Besides, the remaining activity at 10 µM came to 60.6% at BsAcuC (2c) [2] (10 µM inhibitor, mean of n = 2, 40 µM LGKac); 56.2% on BsAcuC (2c) [2] (10 µM inhibitor, single measurements (two columns), 40 µM LGKac, 60 min, 37 °C); 56.2% at BsAcuC (2c) [2] (BsAcuC (2c), inhibitor 10 µM, individual replicates); 60.6% on BsAcuC (2c) [2] (BsAcuC (2c), inhibitor 10 µM, mean). For the same molecule, the “inhibition of BsAcuC (2c) in the initial screen, in words” value against BsAcuC (2c) [2] (pre-screening at 10 µM or 1 µM inhibitor) is on record as “only weakly inhibited”.

In [3], “Δ20-37 KpHdaH (from UniProt A0A377Z5F6 1-371) (enzyme)” showed a stoichiometry N of 2.

With “Pseudomonas sp. acetylpolyamine amidohydrolase ApaH (enzyme)”, the stoichiometry N in [4] came to 2.

For “PrpH (propanil hydrolase) of Rhizorhabdus sp. (enzyme)”, the stoichiometry N in data set [5] worked out at 4.

As for PsApaH_(1-342) (4) (domain or fragment), the stoichiometry N in [6] worked out at 2.

B1: DmhA (dimethoate hydrolase) of Rhizorhabdus wittichii (enzyme)
chain: MARTGFYTDERTFWHATGMQALFLPVGDWVQPPNGTAGADTPDSKRRLLNLAHASGLIRKLTLPEAIPATVEDVCRVHPRDYIDRFKATSDAGGGDLGHLAPFSKGGYEIAMLSCGLAIAAVDDVLSGKVDNAYALCRPAGHHCLADTPMGFCLLANIPIAIEAAKARHGISRVAVVDWDVHHGNGTQSIFYDRADVLTISIHQDRCFPPGYSGAEDRGEGAGLGYNLNVPLPAGAGHDAYVQAFDDIVVPALDDFKPDLIIVASGLDANSVDPLARMLLHSESYRLLTQKMLDAAARLCGGKLVVVHEGGYAEAYVPFCGHALLEALSGERTAVVDPVLEMAEAWQPGPEAAAFHRQWIDRLVADLGK
notes: also called RwDmhA (1b); RwDmhA
For the molecule B1, the “stoichiometry N” value in “crystal structure” was found to be 4.

B2: p53-peptide QPKKac (peptide)
peptide: QPKK
Regarding B2, the Ki in data set [7] was 13000 nM; in data set [8], 44000 nM; in data set [9], 154000 nM; in data set [10] it was 122000 nM.

B3: Klebsiella pneumoniae HdaH (enzyme, UniProt A0A377Z5F6 1-371, looked up)
chain: MKRKTGFFFDERCFWHSTGLHAVTLPVGGWVQPPAGGGHAESPETKRRMKNLMDVSGLTPQLALRSAAPASLEDLRRIHPDSYLERFKAISDNGGGMLGKEAPLGPGSYEIACLSAGLACAAVEAVLKGELDNAYSLSRPPGHHCLPDQSMGFCFLANIPIAVERAKAQLGLGKVAIIDWDVHHGNGTQHIYLQRDDVLTISLHQDGCFPPGYAGEDDRGVGAGEGYNINIPLLAGAGDDSWRYALETIVIPALARFEPELIIIACGYDANAMDPLARMQLHSDSFRAMTEQVQQAADRLCGGKLVMVHEGGYAESYVPFCGLAVMEALSGIRTEVQDPLLEFIQQQQPRATFAQFQRQAIDRLAQQFGLQ
notes: also called KpHdaH (1b); KpHdaH
For the molecule B3, in “crystal structure”, the “stoichiometry N” value came to 4.
